# Several values for one entry are separate records, joined by “and”; a condition that tells them apart may be missing. Equal values may be shown once. Read-outs that look alike come from different tables or passages of the source.
# Tested on: 3D7 P. falciparum parasites
# Assay: Growth inhibition assay (72 h, LDH activity)
# Type: cell-based, Plasmodium falciparum
# Settings: for (av-uRBC) / (DMSO-uRBC) x100 / Growth inhibition, (1 - av / DMSO) x 100: 3D7; for Growth inhibition, (1 - av / DMSO) x 100: Fig 2B source data, per biological replicate; for inhibition at 0.123457 µM: conc 123.457 nM
# Procedure: Parasite growth assays with inhibitory compounds were performed as per[11] and are fully described in the Supplementary Information. […]
# Growth inhibition assays. Synchronised ring-stage parasites (0.3-0.6% parasitemia, 2% haematocrit) were grown for 72 h in a serial-dilution of the compound under […]
# and compound 4. Note that M-833 was first purchased from MolPort (MolPort -002-267-916) then made in-house at WEHI: the differences observed in EC50s across experiments are attributed to the different batches of M -833. For some experiments, 0, 0.25 or 2.5 mM of glucosamine (GlcN) was also added. Experiments were set up in technical duplicates or triplicates. Following a freeze -thaw cycle, lactate dehydrogenase (LDH) activity was assessed as an indicator of parasite growt h 5. 30 μL of parasite culture was incubated for 30 min in the dark with 75 μL Malstat mixture (0.1 M Tris pH 9.0, 20 g/L lactic acid, pH 7.5, 0.2% Triton-X100, 0.5 g/L acetylpyridine adenine dinucleotide (APAD, Sigma), 200 μg/mL nitroblue tetrazolium (NBT; Sigma), 1 μg/mL phenozine ethosulfate (PES; Sigma)). Absorbance was then measured at 650 nm, transformed using the formula below, plotted against the logarithm of the concentrations, and a non-linear regression (log(inhibitor) vs. response, variable slope) was calculated using GraphPad Prism to assess the half-inhibitory […]
# Growth inhibition % = (1 − average(sample)− average(uRBC)) ∗ 100 […]
# The DMSO samples were also used to assess growth of parasite in the presence of 0.25 and 2.5 mM GlcN (normalised by DMSO in 0 mM GlcN). […]
structure (smiles),measurement,setting,value
Cc1cc(Cl)c(S(=O)(=O)N2CCCC2)cc1OCC(=O)NC1CCCCC1 [M-833],(av-uRBC) / (DMSO-uRBC) x100,"conc. 27.4348 nM, Biological replicate 1 (2021-10-25)",97.1981
same,(av-uRBC) / (DMSO-uRBC) x100,"conc. 27.4348 nM, Biological replicate 2 (2021-11-03)",104.176
same,(av-uRBC) / (DMSO-uRBC) x100,"conc. 82.3045 nM, Biological replicate 1 (2021-10-25)",86.0541
same,(av-uRBC) / (DMSO-uRBC) x100,"conc. 82.3045 nM, Biological replicate 2 (2021-11-03)",97.3382
same,(av-uRBC) / (DMSO-uRBC) x100,"conc. 246.914 nM, Biological replicate 1 (2021-10-25)",38.189
same,(av-uRBC) / (DMSO-uRBC) x100,"conc. 246.914 nM, Biological replicate 2 (2021-11-03)",46.3664
same,(av-uRBC) / (DMSO-uRBC) x100,"conc. 740.741 nM, Biological replicate 1 (2021-10-25)",13.3602
same,(av-uRBC) / (DMSO-uRBC) x100,"conc. 740.741 nM, Biological replicate 2 (2021-11-03)",12.5985
same,(av-uRBC) / (DMSO-uRBC) x100,"conc. 2222.22 nM, Biological replicate 1 (2021-10-25)",9.5843
same,(av-uRBC) / (DMSO-uRBC) x100,"conc. 2222.22 nM, Biological replicate 2 (2021-11-03)",9.9758
same,(av-uRBC) / (DMSO-uRBC) x100,"conc. 6666.67 nM, Biological replicate 1 (2021-10-25)",8.737
same,(av-uRBC) / (DMSO-uRBC) x100,"conc. 6666.67 nM, Biological replicate 2 (2021-11-03)",9.539
same,(av-uRBC) / (DMSO-uRBC) x100,"conc. 20000 nM, Biological replicate 1 (2021-10-25)",8.871
same,(av-uRBC) / (DMSO-uRBC) x100,"conc. 20000 nM, Biological replicate 2 (2021-11-03)",7.978
same,Normalised to DMSO,"3D7 replicate 1, M-833 0.0390625 uM",93.8526
same,Normalised to DMSO,"3D7 replicate 1, M-833 0.078125 uM",78.1653
same,Normalised to DMSO,"3D7 replicate 1, M-833 0.15625 uM",53.0058
same,Normalised to DMSO,"3D7 replicate 1, M-833 0.3125 uM",31.7546
same,Normalised to DMSO,"3D7 replicate 1, M-833 0.625 uM",15.6331
same,Normalised to DMSO,"3D7 replicate 1, M-833 1.25 uM",6.894
same,Normalised to DMSO,"3D7 replicate 1, M-833 2.5 uM",4.18
same,Normalised to DMSO,"3D7 replicate 1, M-833 5 uM",4.492
same,Normalised to DMSO,"3D7 replicate 1, M-833 10 uM",2.7005
same,Normalised to DMSO,"3D7 replicate 2, M-833 0.0390625 uM (plate column as in replicate 1)",98.0943
same,Normalised to DMSO,"3D7 replicate 2, M-833 0.078125 uM (plate column as in replicate 1)",69.2248
same,Normalised to DMSO,"3D7 replicate 2, M-833 0.15625 uM (plate column as in replicate 1)",42.9307
same,Normalised to DMSO,"3D7 replicate 2, M-833 0.3125 uM (plate column as in replicate 1)",17.4092
same,Normalised to DMSO,"3D7 replicate 2, M-833 0.625 uM (plate column as in replicate 1)",12.6706
same,Normalised to DMSO,"3D7 replicate 2, M-833 1.25 uM (plate column as in replicate 1)",9.0394
same,Normalised to DMSO,"3D7 replicate 2, M-833 2.5 uM (plate column as in replicate 1)",8.2153
same,Normalised to DMSO,"3D7 replicate 2, M-833 5 uM (plate column as in replicate 1)",8.679
same,Normalised to DMSO,"3D7 replicate 2, M-833 10 uM (plate column as in replicate 1)",8.859
same,"Growth inhibition, (1 - av / DMSO) x 100",M-833 conc 0.00152416 (unit not given),-18.032% and -5.346% and 12.6336%
same,"Growth inhibition, (1 - av / DMSO) x 100",M-833 conc 0.00457247 (unit not given),-25.7702% and -5.3748% and 10.1353%
same,"Growth inhibition, (1 - av / DMSO) x 100",M-833 conc 0.0137174 (unit not given),-26.0091% and 2.611% and 15.3938%
same,"Growth inhibition, (1 - av / DMSO) x 100",M-833 conc 0.0411523 (unit not given),13.4703% and 15.2318% and 31.5623%
same,"Growth inhibition, (1 - av / DMSO) x 100",M-833 conc 0.123457 (unit not given),53.3795% and 44.2845% and 58.2697%
same,"Growth inhibition, (1 - av / DMSO) x 100",M-833 conc 0.37037 (unit not given),86.6253% and 82.9734% and 89.4611%
same,"Growth inhibition, (1 - av / DMSO) x 100",M-833 conc 1.11111 (unit not given),95.3188% and 95.9852%
same,"Growth inhibition, (1 - av / DMSO) x 100",M-833 conc 3.33333 (unit not given),96.9668% and 96.3144% and 96.0397%
same,"Growth inhibition, (1 - av / DMSO) x 100",M-833 conc 10 (unit not given),97.5639% and 97.303% and 96.0397%
same,Normalised to DMSO,"M-833 0.0390625 uM, 3D7 replicate 3",105.125
same,Normalised to DMSO,"M-833 0.078125 uM, 3D7 replicate 3",101.149
same,Normalised to DMSO,"M-833 0.15625 uM, 3D7 replicate 3",87.6289
same,Normalised to DMSO,"M-833 0.3125 uM, 3D7 replicate 3",55.4639
same,Normalised to DMSO,"M-833 0.625 uM, 3D7 replicate 3",35.4934
same,Normalised to DMSO,"M-833 1.25 uM, 3D7 replicate 3",26.4801
same,Normalised to DMSO,"M-833 2.5 uM, 3D7 replicate 3",22.6804
same,Normalised to DMSO,"M-833 5 uM, 3D7 replicate 3",16.5832
same,Normalised to DMSO,"M-833 10 uM, 3D7 replicate 3",21.9735
same,inhibition at 0.0137174 µM,"Plasmodium falciparum, 3D7, 3D7, 0 mM GlcN, conc 13.7174 nM, read-out: Growth inhibition assay, NORMALISED",20.6%
same,inhibition at 0.0411523 µM,"Plasmodium falciparum, 3D7, 3D7, 0 mM GlcN, conc 41.1523 nM, read-out: Growth inhibition assay, NORMALISED",44.4%
same,inhibition at 0.123457 µM,"Plasmodium falciparum, 3D7, 3D7, 0 mM GlcN, read-out: Growth inhibition assay, NORMALISED",79.5%
same,inhibition at 0.37037 µM,"Plasmodium falciparum, 3D7, 3D7, 0 mM GlcN, conc 370.37 nM, read-out: Growth inhibition assay, NORMALISED",90.2%
same,inhibition at 1.11111 µM,"Plasmodium falciparum, 3D7, 3D7, 0 mM GlcN, conc 1111.11 nM, read-out: Growth inhibition assay, NORMALISED",91.3%
same,inhibition at 3.33333 µM,"Plasmodium falciparum, 3D7, 3D7, 0 mM GlcN, conc 3333.33 nM, read-out: Growth inhibition assay, NORMALISED",93.7%
same,inhibition at 10 µM,"Plasmodium falciparum, 3D7, 3D7, 0 mM GlcN, conc 10000 nM, read-out: Growth inhibition assay, NORMALISED",94.5%
same,inhibition at 0.123457 µM,"Plasmodium falciparum, 3D7, 3D7, 0.25 mM GlcN, read-out: Growth inhibition assay, NORMALISED",77.6%

# From PMC11189555, “Aryl amino acetamides prevent Plasmodium falciparum ring development via targeting the lipid-transfer protein PfSTART1” (Nature Communications, 2024)
